Read-outs that look alike come from different tables or passages of the source.
What was measured:
Assay in all cases: Test D pre-/postemergence plant response
Assay type in all cases: in vivo
[1] = system: lambsquarters (Chenopodium album); conditions: Chenopodium album; for pest or weed control at 31 g/ha: 31 g ai/ha; for pest or weed control at 62 g/ha: 62 g ai/ha; for pest or weed control at 125 g/ha: 125 g ai/ha; for pest or weed control at 250 g/ha: 250 g ai/ha
Source text: (§1) Seeds of plant species selected from blackgrass (Alopecurus myosuroides), Italian ryegrass (Lolium multiflorum), winter wheat (Triticum aestivum), galium (catchweed bedstraw, Galium aparine), corn (Zea mays), large (Lg) crabgrass (Digitaria sanguinalis), giant foxtail (Setaria faberii), johnsongrass (Sorghum halepense), lambsquarters (Chenopodium album), morningglory (Ipomoea coccinea), yellow nutsedge (Cyperus esculentus), pigweed (Amaranthus retroflexus), ragweed (common ragweed, Ambrosia elatior), soybean (Glycine max), bamyardgrass (Echinochloa crus-galli), oilseed rape (Brassica napus), waterhemp (common waterhemp, Amaranthus rudis), and velvetleaf (Abutilon theophrasti) were planted into a blend of loam soil and sand and treated preemergence with test chemicals formulated in a non-phytotoxic solvent mixture which included a surfactant. At the same time, plants selected from these crop and weed species and also kochia (Kochia scoparia), wild oat (Avena fatua), and chickweed (common chickweed, Stellaria media) were planted in pots containing Redi-Earth® planting medium (Scotts Company, 14111 Scottslawn Road, Marysville, Ohio 43041) comprising spaghnum peat moss, vermiculite, wetting agent and starter nutrients and treated with postemergence applications of test chemicals formulated in the same manner. Plants ranged in height from 2 to 18 cm (1- to 4-leaf stage) for postemergence treatments. Treated plants and controls were maintained in a greenhouse for 13 to 15 days, after which time all species were compared to controls and visually evaluated. Plant response ratings, summarized in Table D, are based on a scale of 0 to 100 where 0 is no effect and 100 is complete control. A dash (-) response means no test result.

corn (Zea mays) = conditions: Zea mays; for Corn plant response rating (crop injury, 0 = no effect, 100 = complete kill) at 62 g/ha: 62 g ai/ha
Source text: as §1

[2] = system: waterhemp (common waterhemp, Amaranthus rudis); conditions: Amaranthus tuberculatus; for pest or weed control at 31 g/ha: 31 g ai/ha; for pest or weed control at 62 g/ha: 62 g ai/ha; for pest or weed control at 125 g/ha: 125 g ai/ha; for pest or weed control at 250 g/ha: 250 g ai/ha
Source text: as §1

[3] = system: oilseed rape (Brassica napus); conditions: Brassica napus; for plant injury at 31 g/ha: 31 g ai/ha; for plant injury at 62 g/ha: 62 g ai/ha; for plant injury at 125 g/ha: 125 g ai/ha; for plant injury at 250 g/ha: 250 g ai/ha
Source text: as §1

soybean (Glycine max) = conditions: Glycine max; for plant injury at 31 g/ha: 31 g ai/ha; for plant injury at 62 g/ha: 62 g ai/ha; for plant injury at 125 g/ha: 125 g ai/ha; for plant injury at 250 g/ha: 250 g ai/ha
Source text: as §1

[4] = system: galium (catchweed bedstraw, Galium aparine); conditions: Galium; for pest or weed control at 31 g/ha: 31 g ai/ha; for pest or weed control at 62 g/ha: 62 g ai/ha; for pest or weed control at 125 g/ha: 125 g ai/ha; for pest or weed control at 250 g/ha: 250 g ai/ha
Source text: as §1

[5] = system: giant foxtail (Setaria faberii); conditions: Setaria faberi; for pest or weed control at 31 g/ha: 31 g ai/ha; for pest or weed control at 62 g/ha: 62 g ai/ha; for pest or weed control at 125 g/ha: 125 g ai/ha; for pest or weed control at 250 g/ha: 250 g ai/ha
Source text: as §1

[6] = system: morningglory (Ipomoea coccinea); conditions: Ipomoea; for pest or weed control at 31 g/ha: 31 g ai/ha; for pest or weed control at 62 g/ha: 62 g ai/ha; for pest or weed control at 125 g/ha: 125 g ai/ha; for pest or weed control at 250 g/ha: 250 g ai/ha
Source text: as §1

[7] = system: barnyardgrass (Echinochloa crus-galli); conditions: Echinochloa crus-galli; for pest or weed control at 31 g/ha: 31 g ai/ha, scale 0 to 100 (0 no effect, 100 complete control); for pest or weed control at 62 g/ha: 62 g ai/ha; for pest or weed control at 125 g/ha: 125 g ai/ha; for pest or weed control at 250 g/ha: 250 g ai/ha
Source text: as §1

[8] = post-emergence, Postemergence, scale 0 to 100, 0 no effect, 100 complete control, read-out: Plant response rating, Lambsquarters
[9] = pre-emergence, Preemergence, read-out: Plant response rating (scale 0 to 100), Lambsquarters
[10] = pre-emergence, Preemergence, scale 0 to 100 (0 no effect, 100 complete control), read-out: Plant response rating, Lambsquarters
[11] = post-emergence, Postemergence, scale 0 to 100, 0 no effect, 100 complete control, read-out: Plant response rating, Waterhemp
[12] = pre-emergence, Preemergence, read-out: Plant response rating (scale 0 to 100), Waterhemp
[13] = pre-emergence, Preemergence, scale 0 to 100 (0 no effect, 100 complete control), read-out: Plant response rating, Waterhemp
[14] = post-emergence, Postemergence, scale 0 to 100, 0 no effect, 100 complete control, read-out: Plant response rating, Oilseed Rape
[15] = pre-emergence, Preemergence, read-out: Plant response rating (scale 0 to 100), Oilseed Rape
[16] = pre-emergence, Preemergence, scale 0 to 100 (0 no effect, 100 complete control), read-out: Plant response rating, Oilseed Rape
[17] = post-emergence, Postemergence, scale 0 to 100, 0 no effect, 100 complete control, read-out: Plant response rating, Soybean
[18] = pre-emergence, Preemergence, read-out: Plant response rating (scale 0 to 100), Soybean
[19] = pre-emergence, Preemergence, scale 0 to 100 (0 no effect, 100 complete control), read-out: Plant response rating, Soybean
[20] = post-emergence, Postemergence, scale 0 to 100, 0 no effect, 100 complete control, read-out: Plant response rating, Galium
[21] = pre-emergence, Preemergence, read-out: Plant response rating (scale 0 to 100), Galium
[22] = pre-emergence, Preemergence, scale 0 to 100 (0 no effect, 100 complete control), read-out: Plant response rating, Galium
[23] = post-emergence, Postemergence, scale 0 to 100, 0 no effect, 100 complete control, read-out: Plant response rating, Foxtail, Giant
[24] = pre-emergence, Preemergence, read-out: Plant response rating (scale 0 to 100), Foxtail, Giant
[25] = pre-emergence, Preemergence, scale 0 to 100 (0 no effect, 100 complete control), read-out: Plant response rating, Foxtail, Giant
[26] = post-emergence, Postemergence, scale 0 to 100, 0 no effect, 100 complete control, read-out: Plant response rating, Morningglory
[27] = pre-emergence, Preemergence, read-out: Plant response rating (scale 0 to 100), Morningglory
[28] = pre-emergence, Preemergence, scale 0 to 100 (0 no effect, 100 complete control), read-out: Plant response rating, Morningglory
[29] = post-emergence, Postemergence, scale 0 to 100, 0 no effect, 100 complete control, read-out: Plant response rating, Barnyardgrass
[30] = pre-emergence, Preemergence, read-out: Plant response rating (scale 0 to 100), Barnyardgrass

FC(F)c1cc(-c2ccccc2Oc2ncc(Br)cn2)no1 [Compound 62, 5-bromo-2-[2-[5-(difluoromethyl)-3-isoxazolyl]phenoxy]pyrimidine]
pest or weed control at 31 g/ha ([1]; post-emergence, Postemergence, scale 0 to 100 (0 no effect, 100 complete control), read-out: Lambsquarters plant response rating): 98% | pest or weed control at 62 g/ha [1, 8]: 98% | pest or weed control at 125 g/ha [1, 8]: 100% | pest or weed control at 250 g/ha [1, 8]: 100% | pest or weed control at 125 g/ha [1, 9]: 98% | pest or weed control at 250 g/ha [1, 9]: 100% | pest or weed control at 31 g/ha [1, 10]: 100% | pest or weed control at 62 g/ha [1, 10]: 95% | plant injury at 31 g/ha (corn (Zea mays); post-emergence, Postemergence, 31 g ai/ha, scale 0 to 100 (0 no effect, 100 complete control), read-out: Corn plant response rating): 10% | Corn plant response rating (crop injury, 0 = no effect, 100 = complete kill) at 62 g/ha (corn (Zea mays); post-emergence, Postemergence, scale 0 to 100, 0 no effect, 100 complete control): 10% | Corn plant response rating (crop injury, 0 = no effect, 100 = complete kill) at 125 g/ha (corn (Zea mays); post-emergence, Postemergence, 125 g ai/ha, scale 0 to 100, 0 no effect, 100 complete control): 15% | Corn plant response rating (crop injury, 0 = no effect, 100 = complete kill) at 250 g/ha (corn (Zea mays); post-emergence, Postemergence, 250 g ai/ha, scale 0 to 100, 0 no effect, 100 complete control): 10% | plant injury at 125 g/ha (corn (Zea mays); pre-emergence, Preemergence, 125 g ai/ha, read-out: Plant response rating (scale 0 to 100), Corn): 60% | plant injury at 250 g/ha (corn (Zea mays); pre-emergence, Preemergence, 250 g ai/ha, read-out: Plant response rating (scale 0 to 100), Corn): 70% | Corn plant response rating (crop injury, 0 = no effect, 100 = complete kill) at 31 g/ha (corn (Zea mays); pre-emergence, Preemergence, 31 g ai/ha, scale 0 to 100 (0 no effect, 100 complete control)): 35% | Corn plant response rating (crop injury, 0 = no effect, 100 = complete kill) at 62 g/ha (corn (Zea mays); pre-emergence, Preemergence, scale 0 to 100 (0 no effect, 100 complete control)): 30% | pest or weed control at 31 g/ha ([2]; post-emergence, Postemergence, scale 0 to 100 (0 no effect, 100 complete control), read-out: Waterhemp plant response rating): 98% | pest or weed control at 62 g/ha [2, 11]: 98% | pest or weed control at 125 g/ha [2, 11]: 98% | pest or weed control at 250 g/ha [2, 11]: 100% | pest or weed control at 125 g/ha [2, 12]: 100% | pest or weed control at 250 g/ha [2, 12]: 100% | pest or weed control at 31 g/ha [2, 13]: 100% | pest or weed control at 62 g/ha [2, 13]: 100% | plant injury at 31 g/ha ([3]; post-emergence, Postemergence, scale 0 to 100 (0 no effect, 100 complete control), read-out: Oilseed Rape plant response rating): 80% | plant injury at 62 g/ha [3, 14]: 90% | plant injury at 125 g/ha [3, 14]: 98% | plant injury at 250 g/ha [3, 14]: 100% | plant injury at 125 g/ha [3, 15]: 100% | plant injury at 250 g/ha [3, 15]: 100% | plant injury at 31 g/ha [3, 16]: 100% | plant injury at 62 g/ha [3, 16]: 98% | plant injury at 31 g/ha (soybean (Glycine max); post-emergence, Postemergence, scale 0 to 100 (0 no effect, 100 complete control), read-out: Soybean plant response rating): 80% | plant injury at 62 g/ha (soybean (Glycine max); [17]): 95% | plant injury at 125 g/ha (soybean (Glycine max); [17]): 98% | plant injury at 250 g/ha (soybean (Glycine max); [17]): 98% | plant injury at 125 g/ha (soybean (Glycine max); [18]): 85% | plant injury at 250 g/ha (soybean (Glycine max); [18]): 95% | plant injury at 31 g/ha (soybean (Glycine max); [19]): 60% | plant injury at 62 g/ha (soybean (Glycine max); [19]): 70% | pest or weed control at 31 g/ha ([4]; post-emergence, Postemergence, scale 0 to 100 (0 no effect, 100 complete control), read-out: Galium plant response rating): 85% | pest or weed control at 62 g/ha [4, 20]: 85% | pest or weed control at 125 g/ha [4, 20]: 100% | pest or weed control at 250 g/ha [4, 20]: 100% | pest or weed control at 125 g/ha [4, 21]: 100% | pest or weed control at 250 g/ha [4, 21]: 100% | pest or weed control at 31 g/ha [4, 22]: 100% | pest or weed control at 62 g/ha [4, 22]: 100% | pest or weed control at 31 g/ha ([5]; post-emergence, Postemergence, scale 0 to 100 (0 no effect, 100 complete control), read-out: Foxtail, Giant plant response rating): 25% | pest or weed control at 62 g/ha [5, 23]: 25% | pest or weed control at 125 g/ha [5, 23]: 20% | pest or weed control at 250 g/ha [5, 23]: 55% | pest or weed control at 125 g/ha [5, 24]: 100% | pest or weed control at 250 g/ha [5, 24]: 100% | pest or weed control at 31 g/ha [5, 25]: 95% | pest or weed control at 62 g/ha [5, 25]: 100% | pest or weed control at 31 g/ha ([6]; post-emergence, Postemergence, scale 0 to 100 (0 no effect, 100 complete control), read-out: Morningglory plant response rating): 85% | pest or weed control at 62 g/ha [6, 26]: 95% | pest or weed control at 125 g/ha [6, 26]: 95% | pest or weed control at 250 g/ha [6, 26]: 98% | pest or weed control at 125 g/ha [6, 27]: 98% | pest or weed control at 250 g/ha [6, 27]: 100% | pest or weed control at 31 g/ha [6, 28]: 25% | pest or weed control at 62 g/ha [6, 28]: 55% | pest or weed control at 31 g/ha ([7]; post-emergence, Postemergence, read-out: Barnyardgrass plant response rating): 50% | pest or weed control at 62 g/ha [7, 29]: 35% | pest or weed control at 125 g/ha [7, 29]: 30% | pest or weed control at 250 g/ha [7, 29]: 95% | pest or weed control at 62 g/ha [7, 30]: 98% | pest or weed control at 125 g/ha [7, 30]: 100% | pest or weed control at 250 g/ha [7, 30]: 100% | pest or weed control at 31 g/ha ([7]; pre-emergence, Preemergence, read-out: Plant response rating, Barnyardgrass): 50%
